Measurements published in patent publication US20230339878A1, “SLC26A3 INHIBITORS AND USE THEREOF” (THE REGENTS OF THE UNIVERSITY OF CALIFORNIA, priority 2018, published 2023).
“Also recorded” adds a separate entry of the source.

Target: T1, TMEM16A (Homo sapiens, UniProt Q5XXA6)
T1 sequence (Q5XXA6 1-986): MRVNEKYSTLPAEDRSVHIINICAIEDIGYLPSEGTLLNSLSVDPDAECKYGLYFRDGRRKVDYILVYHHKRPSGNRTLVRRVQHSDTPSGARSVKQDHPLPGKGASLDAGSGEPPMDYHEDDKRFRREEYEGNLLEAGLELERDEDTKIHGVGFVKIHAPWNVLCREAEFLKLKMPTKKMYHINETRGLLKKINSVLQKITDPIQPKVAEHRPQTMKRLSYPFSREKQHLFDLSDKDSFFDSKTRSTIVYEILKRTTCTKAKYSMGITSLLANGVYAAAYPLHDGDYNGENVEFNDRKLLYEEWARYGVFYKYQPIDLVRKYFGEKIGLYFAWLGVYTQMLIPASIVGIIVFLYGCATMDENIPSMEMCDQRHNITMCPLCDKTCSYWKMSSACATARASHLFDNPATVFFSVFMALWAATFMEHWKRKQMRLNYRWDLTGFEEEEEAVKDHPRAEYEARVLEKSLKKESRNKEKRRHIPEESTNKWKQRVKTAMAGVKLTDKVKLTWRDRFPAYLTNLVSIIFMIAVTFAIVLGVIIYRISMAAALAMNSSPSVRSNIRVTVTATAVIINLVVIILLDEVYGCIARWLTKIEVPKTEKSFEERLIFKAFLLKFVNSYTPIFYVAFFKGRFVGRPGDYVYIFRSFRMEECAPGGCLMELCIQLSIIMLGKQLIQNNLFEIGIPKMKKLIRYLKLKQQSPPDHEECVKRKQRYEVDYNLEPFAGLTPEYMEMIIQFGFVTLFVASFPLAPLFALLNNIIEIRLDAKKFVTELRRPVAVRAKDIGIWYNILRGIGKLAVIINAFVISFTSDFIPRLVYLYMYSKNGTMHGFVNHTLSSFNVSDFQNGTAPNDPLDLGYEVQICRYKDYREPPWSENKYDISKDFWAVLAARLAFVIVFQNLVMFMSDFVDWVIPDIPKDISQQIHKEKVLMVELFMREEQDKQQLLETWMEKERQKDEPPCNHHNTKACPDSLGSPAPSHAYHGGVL
Assay: Selectivity: TMEM16A (ATP-stimulated) YFP assay
Format: cell-based
Settings: 10 µM
Source text: To investigate Compound A1 selectivity, transport assays were done on a panel of SLC26-family homologs, and other relevant epithelial ion transporters and channels. […] In separate studies, to investigate possible action of Compound A1 on multiple ion transporters and channels in a human epithelium, human bronchial epithelial (HBE) cells were studied by short-circuit current, with successive additions of amiloride (to block the epithelial sodium channel ENaC), forskolin, CFTRinh-172 (to block CFTR), and ATP (to activate the Ca^2+-activated chloride channel, CaCC) (FIG. 5C).
YFP-based assays of CFTR, pendrin and TMEM16A were as described. HEK cells transfected to express YFP and SLC26A3, slc26a6 or slc26a9 were functionally assayed using a Cl^-/I^- exchange protocol. Assays of Cl^-/HCO3^- exchange were done using BCECF as an intracellular pH indicator as described for pendrin. […]
HEK293 cells transfected with pIRES-YFP-slc26a9 were plated in 96-well black-walled, clear-bottom tissue culture plates (Corning Life Sciences, Tewksbury, MA) after coating with FNC Coating Mix (AthenaES, Baltimore, MD). […] Assays of slc26a9-mediated anion exchange were done by initially recording YFP fluorescence prior to addition of 100 µL of NaI-substituted PBS to test wells, with the initial rate of Cl^-/I^- exchange deduced from fluorescence intensity by single exponential regression. […]

In the case of `Cc1c(CC(=O)O)c(=O)oc2c(C)c(OCc3cccc(Br)c3)ccc12` [Compound A1], the “effect on activity of TMEM16A” value is reported as “did not alter the activity; also recorded: differences not significant”.
